Measured values: patent US20180319810A1, “SUBSTITUTED BRIDGED UREA ANALOGS AS SIRTUIN MODULATORS” (GlaxoSmithKline Intellectual Property (No.2) Limited, priority 2014, published 2018)

Biological target: T1, SIRT1 (Homo sapiens, UniProt Q96EB6)
T1 sequence (Q96EB6 1-747): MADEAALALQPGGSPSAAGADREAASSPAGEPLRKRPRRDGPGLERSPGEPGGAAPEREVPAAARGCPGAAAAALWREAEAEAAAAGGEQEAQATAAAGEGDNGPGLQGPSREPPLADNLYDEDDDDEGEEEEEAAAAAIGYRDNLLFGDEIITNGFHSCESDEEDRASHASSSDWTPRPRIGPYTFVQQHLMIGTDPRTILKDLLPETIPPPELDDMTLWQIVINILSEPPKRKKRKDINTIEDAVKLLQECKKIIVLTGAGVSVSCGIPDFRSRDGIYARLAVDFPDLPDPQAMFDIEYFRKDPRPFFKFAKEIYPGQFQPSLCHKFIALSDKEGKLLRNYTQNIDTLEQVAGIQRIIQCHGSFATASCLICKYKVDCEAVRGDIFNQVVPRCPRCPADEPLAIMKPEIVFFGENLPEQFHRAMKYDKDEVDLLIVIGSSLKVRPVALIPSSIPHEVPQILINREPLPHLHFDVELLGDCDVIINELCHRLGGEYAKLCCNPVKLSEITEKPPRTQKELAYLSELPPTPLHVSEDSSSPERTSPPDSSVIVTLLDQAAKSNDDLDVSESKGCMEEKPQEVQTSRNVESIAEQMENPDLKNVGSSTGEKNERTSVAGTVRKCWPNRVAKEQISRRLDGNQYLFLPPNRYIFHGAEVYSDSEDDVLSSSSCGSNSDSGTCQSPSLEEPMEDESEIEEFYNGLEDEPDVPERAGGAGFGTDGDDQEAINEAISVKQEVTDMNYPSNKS
Experiment: Trp mass spectrometry assay of SIRT1 activation
Type: biochemical
Conditions: Trp peptide Ac-R-H-K-K(Ac)-W-NH2 0.5 μM, 120 μM βNAD+, 10 nM SIRT1, 25 min, 25° C.

SMILES	TRP Activity (EC1.5, concentration of compound required to increase SIRT1 activity by 50% over control)	TRP MAX RESP (percent maximum fold activation relative to control)
CC(C)NC(=O)N1c2nc(-c3cccc(C(F)(F)F)c3)ncc2N2CC[C@H]1C2 [Example 30, (8S)—N-isopropyl-2-(3-(trifluoromethyl)phenyl)-7,8-dihydro-5,8-methanopyrimido[4,5-b][1,4]diazepine-9(6H)-carboxamide]	B (EC1.5 1-25 μM)	A (Fold activation ≥150%)
O=C(Nc1cc(F)cc(-c2cccnc2)c1)N1c2nc(-c3cccc(C(F)(F)F)c3)ncc2N2CC[C@H]1C2 [Example 27, (8S)—N-(3-fluoro-5-(pyridin-3-yl)phenyl)-2-(3-(trifluoromethyl)phenyl)-7,8-dihydro-5,8-methanopyrimido[4,5-b][1,4]diazepine-9(6H)-carboxamide]	A (EC1.5<1 μM)	A (Fold activation ≥150%)
O=C(Nc1cnc(OC[C@H](O)CO)cn1)N1c2nc(-c3cccc(C(F)(F)F)c3)ncc2N2CC[C@H]1C2 [Example 18, (8S)—N-(5-((R)-2,3-dihydroxypropoxy)pyrazin-2-yl)-2-(3-(trifluoromethyl)phenyl)-7,8-dihydro-5,8-methanopyrimido[4,5-b][1,4]diazepine-9(6H)-carboxamide]	B (EC1.5 1-25 μM)	A (Fold activation ≥150%)
O=C(Nc1ccnc(OC[C@@H](O)CO)c1)N1c2nc(-c3cccc(C(F)(F)F)c3)ncc2N2CC[C@H]1C2 [Example 32, (8S)—N-(2-((S)-2,3-dihydroxypropoxy)pyridin-4-yl)-2-(3-(trifluoromethyl)phenyl)-7,8-dihydro-5,8-methanopyrimido[4,5-b][1,4]diazepine-9(6H)-carboxamide]	A (EC1.5<1 μM)	A (Fold activation ≥150%)
O=C(NC1CCCC1)N1c2nc(-c3cccc(C(F)(F)F)c3)ncc2N2CC[C@H]1C2 [Example 52, (8S)—N-cyclopentyl-2-(3-(trifluoromethyl)phenyl)-7,8-dihydro-5,8-methanopyrimido[4,5-b][1,4]diazepine-9(6H)-carboxamide]	B (EC1.5 1-25 μM)	A (Fold activation ≥150%)
Cc1cc(-c2nc(C)c3c(n2)N(C(=O)Nc2ccccn2)[C@H]2CCN3C2)ccn1 [Example 10, (8S)-4-methyl-2-(2-methylpyridin-4-yl)-N-(pyridin-2-yl)-7,8-dihydro-5,8-methanopyrimido[4,5-b][1,4]diazepine-9(6H)-carboxamide]	B (EC1.5 1-25 μM)	A (Fold activation ≥150%)
Cc1ccc(-c2ncc3c(n2)N(C(=O)Nc2ccccn2)[C@H]2CCN3C2)cn1 [Example 4, (8S)-2-(6-methylpyridin-3-yl)-N-(pyridin-2-yl)-7,8-dihydro-5,8-methanopyrimido[4,5-b][1,4]diazepine-9(6H)-carboxamide]	B (EC1.5 1-25 μM)	
Cc1nc(C(=O)N[C@H](C)C(F)(F)F)nc2c1N1CC[C@@H](C1)N2C(=O)Nc1cc(OC[C@H](O)CO)ccn1 [Example 1, (8S)—N9-(4-((R)-2,3-dihydroxypropoxy)pyridin-2-yl)-4-methyl-N2-((R)-1,1,1-trifluoropropan-2-yl)-7,8-dihydro-5,8-methanopyrimido[4,5-b][1,4]diazepine-2,9(6H)-dicarboxamide]	A (EC1.5<1 μM)	A (Fold activation ≥150%)
O=C(Nc1ccc(OC[C@@H](O)CO)cn1)N1c2nc(-c3cccc(C(F)(F)F)c3)ncc2N2CC[C@H]1C2 [Example 42, (8S)—N-(5-((S)-2,3-dihydroxypropoxy)pyridin-2-yl)-2-(3-(trifluoromethyl)phenyl)-7,8-dihydro-5,8-methanopyrimido[4,5-b][1,4]diazepine-9(6H)-carboxamide]	B (EC1.5 1-25 μM)	A (Fold activation ≥150%)

Second part, the compound after the results:

TRP Activity (EC1.5, concentration of compound required to increase SIRT1 activity by 50% over control)	TRP MAX RESP (percent maximum fold activation relative to control)	SMILES
A (EC1.5<1 μM)	A (Fold activation ≥150%)	C[C@@H](NC(=O)c1ncc2c(n1)N(C(=O)Nc1ccccn1)[C@H]1CCN2C1)C(F)(F)F [Example 59, (8S)—N9-(pyridin-2-yl)-N2-((R)-1,1,1-trifluoropropan-2-yl)-7,8-dihydro-5,8-methanopyrimido[4,5-b][1,4]diazepine-2,9(6H)-dicarboxamide]
A (EC1.5<1 μM)	A (Fold activation ≥150%)	O=C(Nc1ncc(OC[C@H](O)CO)cn1)N1c2nc(-c3cccc(C(F)(F)F)c3)ncc2N2CCC[C@H]1C2 [Example 105, (9S)—N-(5-((R)-2,3-dihydroxypropoxy)pyrimidin-2-yl)-2-(3-(trifluoromethyl)phenyl)-8,9-dihydro-6H-5,9-methanopyrimido[4,5-b][1,4]diazocine-10(7H)-carboxamide]
B (EC1.5 1-25 μM)	A (Fold activation ≥150%)	Cc1cc(-c2ncc3c(n2)N(C(=O)Nc2cccnc2)[C@H]2CCCN3C2)ccn1 [Example 114, (9S)-2-(2-methylpyridin-4-yl)-N-(pyridin-3-yl)-8,9-dihydro-6H-5,9-methanopyrimido[4,5-b][1,4]diazocine-10(7H)-carboxamide]
A (EC1.5<1 μM)	A (Fold activation ≥150%)	Cc1nc(-c2cccc(C(F)(F)F)c2)nc2c1N1CCC[C@@H](C1)N2C(=O)Nc1nccc(OC[C@@H](O)CO)n1 [Example 112, (9S)—N-(4-((S)-2,3-dihydroxypropoxy)pyrimidin-2-yl)-4-methyl-2-(3-(trifluoromethyl)phenyl)-8,9-dihydro-6H-5,9-methanopyrimido[4,5-b][1,4]diazocine-10(7H)-carboxamide]
A (EC1.5<1 μM)	A (Fold activation ≥150%)	O=C(Nc1cc(OC[C@H](O)CO)ncn1)N1c2nc(-c3cccc(C(F)(F)F)c3)ncc2N2CCC[C@H]1C2 [Example 92, (9S)—N-(6-((R)-2,3-dihydroxypropoxy)pyrimidin-4-yl)-2-(3-(trifluoromethyl)phenyl)-8,9-dihydro-6H-5,9-methanopyrimido[4,5-b][1,4]diazocine-10(7H)-carboxamide]
A (EC1.5<1 μM)	A (Fold activation ≥150%)	O=C(Nc1cncc(OC[C@H](O)CO)c1)N1c2nc(-c3cccc(C(F)(F)F)c3)ncc2N2CCC[C@H]1C2 [Example 81, (9S)—N-(5-((R)-2,3-dihydroxypropoxy)pyridin-3-yl)-2-(3-(trifluoromethyl)phenyl)-8,9-dihydro-6H-5,9-methanopyrimido[4,5-b][1,4]diazocine-10(7H)-carboxamide]
B (EC1.5 1-25 μM)	A (Fold activation ≥150%)	Cc1nc(-c2cccc(C(F)(F)F)c2)nc2c1N1CC[C@@H](C1)N2C(=O)Nc1ccnc(OC[C@@H](O)CO)c1 [Example 57, (8S)—N-(2-((S)-2,3-dihydroxypropoxy)pyridin-4-yl)-4-methyl-2-(3-(trifluoromethyl)phenyl)-7,8-dihydro-5,8-methanopyrimido[4,5-b][1,4]diazepine-9(6H)-carboxamide]
A (EC1.5<1 μM)	A (Fold activation ≥150%)	O=C(Nc1ccc(OC[C@@H](O)CO)cn1)N1c2nc(-c3cccc(C(F)(F)F)c3)ncc2N2CCC[C@H]1C2 [Example 98, (9S)—N-(5-((S)-2,3-dihydroxypropoxy)pyridin-2-yl)-2-(3-(trifluoromethyl)phenyl)-8,9-dihydro-6H-5,9-methanopyrimido[4,5-b][1,4]diazocine-10(7H)-carboxamide]
A (EC1.5<1 μM)	A (Fold activation ≥150%)	O=C(Nc1cnnc(OC[C@H](O)CO)c1)N1c2nc(-c3cccc(C(F)(F)F)c3)ncc2N2CCC[C@H]1C2 [Example 110, (9S)—N-(6-((R)-2,3-dihydroxypropoxy)pyridazin-4-yl)-2-(3-(trifluoromethyl)phenyl)-8,9-dihydro-6H-5,9-methanopyrimido[4,5-b][1,4]diazocine-10(7H)-carboxamide]
